Data published in US5208223A, “Phosphocholine derivative inhibitors of phospholipase A2” (American Cyanamid Company, priority 1992, dated 1993).
“And” between values parts separate entries of the source, which are not always exact repeats. Equal entries are not always repeated. Structures can show the parent of a compound that is named as a salt.

Legend:
Assay type in all cases: biochemical
[1] = target: T1, porcine pancreatic PLA2 (Sus scrofa, UniProt P00592); assay: MHPLA2 assay: in vitro porcine pancreatic phospholipase A2, mixed micelle design, [s]=10 μm; conditions: for % Inh. / inhibition at 20 µg/mL: subs. con. 10; for inhibition at 25 µg/mL / inhibition at 10 µg/mL: subs. con. 10, read-out: % Inh.
T1 construct: purchased Sigma
T1 sequence (P00592 23-146): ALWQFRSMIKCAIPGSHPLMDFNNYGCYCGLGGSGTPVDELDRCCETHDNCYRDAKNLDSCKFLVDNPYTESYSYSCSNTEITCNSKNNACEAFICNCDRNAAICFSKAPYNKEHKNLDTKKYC
Procedure: (§1) Phospholipase A2 activity was measured by a radiochemical assay in which labeled synthetic phosphatidylcholine substrate is converted by porcine pancreatic PLA2 to free radiolabeled arachidonate and lyso PC. Radiolabeled arachidonate is extracted from the reaction mixture and separated from unreacted substrate by column chromatography or TLC. Radioactivity (cpm) in samples is quantitated by liquid scintillation counting. Specific details are as follows:
(§2) Labeled substrate(1-stearyl-2-^3 H-arachidonylphosphatidylcholine; Amersham, sp. act. 84 (uCi/mmole, 0.025 to 0.2 uCi/assay tube and unlabeled substrates (Avanti), in sufficient quantity to give 20,000 cpm to 50,000 cpm and 10 μM to 1,000 μM final concentration/assay tube are dried under a stream of nitrogen. The PLA2 and mPLA2 assays utilized a […] substrate concentration. The mHPLA2 and HPLA2 assays (vida infra) utilized a 10 μM substrate concentration and the SmPLA2 assay utilized a substrate concentration ranging from 100 to 1000 μm. The substrate is then redissolved in 0.1M tris-HCl buffer, pH 9.0 containing 10 mM CaCl2 and 10 mM Na taurocholate detergent. The mixture is sonicated in a Kontes Sonifier to yield a homogeneous dispersion. The "mixed" micellar substrate is clear. An aliquot is reserved for a cpm count (total substrate). The total reaction volume is 500 μL; siliconized glassware or plasticware is used throughout. Enzyme (Sigma, sp. act.>690 U/mg protein and preferably 900 U/mg protein) is diluted 1:750 or 1:1000 in 0.1M tris-HCl buffer, pH 9.0 (without Ca^++ and detergent). Enzyme dilution depends on substrate concentration and required enzyme concentration.
(§3) The substrate in buffer is kept on ice until the reaction is started. The reaction is started by adding 10 μL of diluted enzyme solution to 490 μL of micellar substrate solution. Samples are incubated in a 37° C. water bath for 15 minutes with gentle mixing. The reaction is terminated by the addition of 100 μL of 1M fresh trichloroacetic acid (TCA) solution and chilling the tubes on ice for 30 minutes.
(§4) Samples (600 μL) are extracted with 3 ml CHCl3 /MeOH (2:1) for thin layer chromatography or in hexane/ether (9:1) for column chromatography. The phases are separated by gentle centrifugation at 700 rpm×5'. The organic phase is recovered.
(§5) Labeled arachidonate extracted with CHCl3 /MeOH is separated on silica gel G TLC plates (Analtech). Twenty μL of a 2 mg/ml internal standard solution of arachidonic acid (Sigma) is combined with 2-3 ml of the organic phase. The entire mixture is dried under nitrogen and redissolved in 50 μL of CHCl3 /MeOH (2:1). A 20 μL sample is counted in 10 ml of Beckman Redi-solv HP and spotted on silica gel G plates. The solvent system used to develop the plate is CHCl3 /MeOH/13.5N NH3 /H2 O (70:30:4:1). Plates are developed in a glass chamber for 1-11/2 hours, air dried, and the spots visualized in an iodine vapor chamber. Standards of phosphatidylcholine, lyso PC, and arachidonic acid (Sigma) are made as 2 mg/ml stocks in CHCl3 /MeOH (2:1) and spotted on plates. Spots corresponding to arachidonate and phospholipid are scraped and counted in 10 ml Beckman Redi-Solv HP scintillation fluid.
(§6) Samples are extracted with hexane/ether and the upper organic phase recovered. An aliquot is applied to a Silicar CC4 (Malincrodt) column. Columns are prepared using 1 ml of a 1:1 slurry of silicar CC4 in hexane/ether in a Pasteur pipet (approx. 2 cm height). Columns are rinsed with 500 μL of hexane/ether before adding the sample (300-600 μL) to the column. Columns are eluted with a total of 6 ml of hexane/ether. The 6 ml sample is counted in 10 ml of Beckman Redi-Solv HP scintillation fluid.
(§7) or the phospholipase A2 assay, compounds are prepared as 1 mg/ml stock solutions in MeOH and diluted appropriately in PBS. […]

[2] = target: T1, porcine pancreatic PLA2; assay: PLA2 assay: in vitro porcine pancreatic phospholipase A2, preincubation of drug+enzyme, substrate 2 nM; conditions: subs. con. 2
Method in brief: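 Porcine pancreatic PLA2 acting on 2 nM radiolabeled arachidonyl-phosphatidylcholine in mixed micelles (0.1 M Tris-HCl pH 9.0, 10 mM CaCl2, 10 mM Na taurocholate), 15 min at 37 °C with preincubation of drug and enzyme. Stopped with TCA; released 3H-arachidonate extracted, separated by TLC or column, counted by scintillation.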

[3] = target: T1, porcine pancreatic PLA2; assay: MPLA2 assay: in vitro porcine pancreatic phospholipase A2, mixed micelle design, substrate 2 nM
Procedure: as §1, §2, §3, §4, §5, §6, §7

[4] = dose 10 μ/ml, preincubation, read-out: % Inh. Avg.
[5] = dose 20 μ/ml, preincubation, read-out: % Inh.
[6] = preincubation, read-out: IC50 (converted)
[7] = dose 10 μ/ml, subs. con. 2, read-out: % Inh.
[8] = dose 20 μ/ml, subs. con. 2, read-out: % Inh.
[9] = dose 25 μ/ml, subs. con. 2, read-out: % Inh.
[10] = dose 10 μ/ml, preincubation, read-out: % Inh.
[11] = dose 25 μ/ml, subs. con. 2, read-out: % Inh. Avg.

Row | Compound | inhibition at 25 µg/mL ([1]; dose 25 μ/ml) [%] | inhibition at 10 µg/mL [2, 4] [%] | inhibition at 20 µg/mL [2, 5] [%] | IC50 [2, 6] [µM] | inhibition at 10 µg/mL [3, 7] [%] | inhibition at 20 µg/mL [3, 8] [%] | inhibition at 25 µg/mL [3, 9] [%] | inhibition at 10 µg/mL [2, 10] [%] | inhibition at 10 µg/mL ([1]; dose 10 μ/ml) [%] | inhibition at 20 µg/mL ([1]; dose 20 μ/ml) [%] | other results
1 | CCCCCCCCCCCCCCCCOCC(COP(=O)([O-])OCC[N+](C)(C)C)CSCCCCCCCCCCCCCCCC (stereo not shown) [7-[(Hexadecylthio)methyl]-4-hydroxy-N,N,N-trimethyl-3,5,9-trioxa-4-phosphapentacosan-1-aminium, hydroxide, inner salt, 4-oxide] | 81 | 26 | 61 | 4.75 | 59 | 69 | 79 |  |  |  | % Inh. ([1]; dose 10 μ/ml): STIM; % Inh. ([1]; dose 20 μ/ml): STIM; IC50 ([3]; subs. con. 2): 7.61 µM
2 | CCCCCCCCCCCCCCCCOCC(COP(=O)([O-])OCC[N+](C)(C)C)CB(O)O (stereo not shown) [7-(Boronomethyl)-4-hydroxy-N,N,N-trimethyl-3,5,9-trioxa-4-phosphapentacosan-1-aminium, hydroxide, inner salt, 4-oxide] | 9 |  | 77 | 10.7 |  |  |  | 57 |  |  | inhibition at 25 µg/mL [3, 11]: 44%
3 | CCCCCOCC(COP(=O)([O-])OCC[N+](C)(C)C)OP(=O)(O)OCCCCC (single isomer, unassigned; less polar) [3,5,8,10-Tetraoxa-4,9-diphosphapentadecan-1-aminium, 4,9-dihydroxy-N,N,N-trimethyl-7-[(pentyloxy)methyl]-, hydroxide, 4-(inner salt), 4,9-dioxide, less polar isomer] | 12 |  | 17 |  |  |  |  | 20 |  |  | % Inh. ([3]; dose 25 μ/ml, subs. con. 2): STIM
4 | CCCCCCCCCCCCCCCCS(=O)(=O)CCCOP(=O)([O-])OCC[N+](C)(C)C [4-Hydroxy-N,N,N-trimethyl-3,5-dioxa-9-thia-4-phosphapentacosan-1-aminium, hydroxide, inner salt, 4.9.9-trioxide] | 24 | 69 | 88 | 9.54 | 24 | 62 |  | 65 | 0 | 19 | IC50 ([1]; subs. con. 10, read-out: IC50 (converted)): 121 µM; IC50 ([3]; subs. con. 2): 37.2 µM
5 | CCCCCCCCCCCCCCCCOCC(COP(=O)([O-])OCC[N+](C)(C)C)COP(=O)(Oc1ccccc1)Oc1ccccc1 (stereo not shown) [4-[(Hexadecyloxy)methyl]-7-hydroxy-N,N,N-trimethyl-1,1-diphenoxy-2.6.8 trioxa-1.7-diophosphadecan-10-aminium, hydroxide, inner salt, 1,7-dioxide] |  |  |  |  |  |  |  |  |  |  | % Inh. ([1]; dose 25 μ/ml): 33%; IC50 ([2]; IC50, preincubation): 6.59 µM; % Inh. ([2]; dose 10 μ/ml, preincubation): 75%; % Inh. ([2]; dose 20 μ/ml, preincubation): 85%; % Inh. ([3]; dose 25 μ/ml, subs. con. 2): 62% and 97%; % Inh. Avg. ([3]; dose 25 μ/ml, subs. con. 2): 79%
6 | CCCCCCCCCCCCCCCC[C@]1(COP(=O)([O-])OCC[N+](C)(C)C)CC(=O)N1 [(2R)-2-[[[(2-Hexadecyl-4-oxo-2-azetidinyl)methoxy]hydroxyphosphinyl]oxy]-N,N,N-trimethylethanaminium, hydroxide, inner salt] | 26 |  | 79 | 2.85 |  |  |  | 82 |  | 0 | % Inh. ([1]; dose 10 μ/ml): STIM; % Inh. ([3]; dose 10 μ/ml, subs. con. 2): STIM; % Inh. ([3]; dose 20 μ/ml, subs. con. 2): STIM
7 | CCCCCCCCCCCCCCCCOCC(COP(=O)([O-])OCC[N+](C)(C)C)CC(=O)C(=O)CCCCCCCCCCCCCCCC (stereo not shown) [7-(2,3-Dioxononadecyl)-4-hydroxy-N,N,N-trimethyl-3,5,9-trioxa-4-phosphapentacosan-1-aminium, hydroxide, inner salt, 4-oxide] | 0 |  | 61 | 7.1 |  |  | 25 | 61 |  |  | 
8 | CCCCCCCCCCCCCCCCOCC(CC=NO)COP(=O)([O-])OCC[N+](C)(C)C (stereo not shown) [4-Hydroxy-7-[2-(hydroxyimino)ethyl]-N,N,N-trimethyl-3,5,9-trioxa-4-phosphaoentacosan-1-aminium, hydroxide, inner salt, 4-oxide] | 28 | 53 | 81 | 10.1 | 19 | 57 | 51 | 56 | 0 | 8 | inhibition at 25 µg/mL [3, 11]: 55%
9 | CCCCCCCCCCCCCCCCOCC(COP(=O)([O-])OCC[N+](C)(C)C)CC(=O)C(F)(F)CCCCCCCCCCCCCCCC (stereo not shown) [3,5,9-Trioxa-4-phosphapentacosan-1-aminium, 7-(3,3-difluoro-2-oxononadecyl)-4-hydroxy-N,N,N-trimethyl-, hydroxide, inner salt, 4-oxide] | 8 |  | 41 |  | 88 | 89 | 80 | 38 | 0 | 9 | 
10 | CCCCCCCCCCCCCCCCC#CCC(COCCCCCCCCCCCCCCCC)COP(=O)([O-])OCC[N+](C)(C)C (stereo not shown) [7-(2-Nonadecynyl)-4-hydroxy-N,N,N-trimethyl-3,5,9-trioxa-4-phosphapentacosan-1-aminium, hydroxide, inner salt, 4-oxide] | 16 |  | 60 | 6.73 |  |  | 65 | 57 |  |  | 
